The record followed here is patent US6589759B1, “Compositions and methods for producing platelets and/or proplatelets from megakaryocytes” (Trustees of Boston University, priority 1999, dated 2003).

Experiment [1] concerns Meg-01 cells. In words: Platelet-sized particle production from Meg-01 cells by flow cytometry (GPIIIa positive). It counts as cell-based, human. As to conditions: for production of GPIIIa positive platelet-sized particles: Meg-01 cells pretreated with 100 ng/ml thrombopoietin for 72 hours, then 100 μM SNO-glu for 2 hours. The method, then: The production of platelet-sized particles in the Meg-01 cell line using flow cytometry was determined. Human megakaryoblastic leukemia cell line Meg-01 was obtained from American Type Culture Collection (Manassas, Va.) and grown in phenol red-free RPMI-1640 media (Gibco-BRL, Grand Island, N.Y.) supplemented with 10% fetal bovine serum at 37° C. in a humidified atmosphere of 5% CO2. The experiment to monitor platelet production by the megakaryocytoid cell line, Meg-01, were performed as follows: 10 ml of Meg-01 cells (1×10^5/ml) were treated with 100 ng/ml of thrombopoietin (TPO, Amgen, Thousand Oaks, Calif.) for 72 hours. The cells were then centrifuged at 1000 rpm for 10 minutes, washed with phosphate buffered saline (PBS) and resuspended in RPMI-1640 media. Meg-01 cells, in the presence and absence of TPO, were treated with 100 μM SNO-glu for 2 hours. The cells were collected by centrifugation (1000 rpm for 10 minutes), washed once in PBS, resuspended in 500 μl of 3% formaldehyde, and allowed to fix for 20 minutes at room temperature. After fixation, 100 μl of cells were labeled with fluorescein isothiocyanate-conjugated (FITC)-conjugated monoclonal mouse anti-human platelet glycoprotein IIIa, CD61 (GPIIIa, DAKO Corp. Carpinteria, Calif.) at a near saturating concentration and incubated at room temperature for 20 minutes. The sample was diluted in 100 μl of PBS and analyzed on a Coulter EPICS XL flow cytometer (Coulter, Miami, Fla.). DNA check flow cytometry beads purchased from Coulter were used for daily instrument calibration. Appropriate color compensation was set for FITC fluorescence and phycoerythrin fluorescence using 525 nm and 575 nm band pass filters, respectively. All data were saved in flow cytometry list mode files and analyzed using Coulter ELITE software, version 2.21. Platelet-sized particles were identified by characteristic log forward light scatter (LFS). Only those particles that bound the anti-GPIIIa-FITC antibody ([…] FITC-conjugated antibody) (Dako, Denmark) were analyzed (by gating the fluorescence signal).
A general note: A flow cytometer gives signals particle by particle.

Experiment [2] concerns Meg-01 cells. Put plainly: Production of cGMP from megakaryocytes treated with SNO-glu (ELISA). Format: cell-based, human. The following applies: for cGMP: n = 2. The method, then:
The Meg-01 cells were grown as described in Example 1. The Med-01 cells, in the presence and absence of TPO, were treated with 100 μM SNO-glu for varying lengths of time. The cells were collected by centrifugation (1000 rpm for 10 minutes), and then lysed with 6% trichloroacteic acid (TCA). The cGMP was extracted with distilled water-saturated ether. The cGMP was quantified using the standard ELISA assay (Caymen Chemical Inc., Ann Arbor, Mich.).
On the technique in general: In an ELISA, binding on a coated surface is turned into a signal by an enzyme label.

As for `N[C@@H](CCC(=O)N[C@@H](CSN=O)C(=O)NCC(=O)O)C(=O)O` [SNO-Glu, S-nitroso-glutathione], the “production of GPIIIa positive platelet-sized particles” value with Meg-01 cells [1] (listed as S-nitroso-glutathione) was “promoted platelet-like particle formation”; in the experiment with Meg-01 cells [1] (listed as SNO-glu), “enhanced production of GPIIIa positive platelet-sized particles”. Further, the “formation of GPIIIa positive platelet-sized particles” value with Meg-01 cells [1] (Meg-01 cells, 100 μM SNO-glu for 2 hours, no TPO) is “formation of GPIIIa positive platelet-sized particle population”. For the same compound, the cGMP in the experiment on Meg-01 cells [2] (100 μM SNO-Glu in the presence of TPO, 30 minutes) came out at 0.960 pmol cGMP/mg Protein; in the experiment with Meg-01 cells [2] (100 μM, 5 minutes) it was 263.1 pmol cGMP/mg Protein; in the experiment with Meg-01 cells [2] (100 μM, 10 minutes), 461.2 pmol cGMP/mg Protein; with Meg-01 cells [2] (100 μM, 20 minutes) it was 472.9 pmol cGMP/mg Protein; with Meg-01 cells [2] (100 μM, 30 minutes) it was 611.3 pmol cGMP/mg Protein. Besides, the “production of cGMP (in words)” value in the experiment with Meg-01 cells [2] (Meg-01 cells, 100 μM SNO-glu) is reported as “increased production of cGMP”.

For “TPO: thrombopoiesis stimulating factor thrombopoietin (TPO, Amgen)”, the “effect of added TPO on cGMP production during SNO-glu treatment” value in the experiment with Meg-01 cells [2] (Meg-01 cells, TPO added during 100 μM SNO-glu treatment) is recorded as “completely suppressed the production of cGMP”.
